Measured values taken from ChEMBL document CHEMBL3045657, “Synthesis and biological evaluation of naphthalene, furan and pyrrole based chalcones as cytotoxic and antimicrobial agents” (2012).
Converted amounts (≈) assume the structure as drawn. The source made the active and inactive calls. No cut-off for these calls is given here.

Assays:
Type in all cases: functional
PC-3 = experiment: Cytotoxicity against Homo sapiens (human) PC3 cells assessed as cell growth inhibition at 1 x 10^-5 M after 48 hr by SRB assay; conditions: for inhibition of growth at 10 µM: PC-3, 48 h, read-out: GI
Salmonella typhi = experiment: Antibacterial activity against Salmonella enterica subsp. enterica serovar Typhi MTCC 1251 after 24 hr by serial tube dilution method; conditions: MTCC 1251, 24 h
Candida albicans = experiment: Antifungal activity against Candida albicans MTCC 3018 after 48 hr by serial tube dilution method; conditions: MTCC 3018, 48 h
HEp-2 = experiment: Cytotoxicity against Homo sapiens (human) Hep2 cells assessed as cell growth inhibition at 1 x 10^-5 M after 48 hr by SRB assay; conditions: for inhibition of growth at 10 µM: HEp-2, 48 h, read-out: GI
Escherichia coli = experiment: Antibacterial activity against Escherichia coli MTCC 82 after 24 hr by serial tube dilution method; conditions: MTCC 82, 24 h
Pseudomonas aeruginosa = experiment: Antibacterial activity against Pseudomonas aeruginosa MTCC 2642 after 24 hr by serial tube dilution method; conditions: MTCC 2642, 24 h
IMR-32 = experiment: Cytotoxicity against Homo sapiens (human) IMR32 cells assessed as cell growth inhibition at 1 x 10^-5 M after 48 hr by SRB assay; conditions: for inhibition of growth at 10 µM: IMR-32, 48 h, read-out: GI
Staphylococcus aureus = experiment: Antibacterial activity against Staphylococcus aureus MTCC 96 after 24 hr by serial tube dilution method; conditions: MTCC 96, 24 h
Bacillus subtilis = experiment: Antibacterial activity against Bacillus subtilis MTCC 2451 after 24 hr by serial tube dilution method; conditions: MTCC 2451, 24 h
OVCAR = experiment: Cytotoxicity against Homo sapiens (human) OVCAR cells assessed as cell growth inhibition at 1 x 10^-5 M after 48 hr by SRB assay; conditions: for inhibition of growth at 10 µM: read-out: GI
Aspergillus niger = experiment: Antifungal activity against Aspergillus niger MTCC 1344 after 48 hr by serial tube dilution method; conditions: MTCC 1344, 48 h

SMILES	growth inhibition (GI) (PC-3)	MIC (Salmonella typhi) [µg/mL]	MIC (Candida albicans) [µg/mL]	inhibition of growth at 10 µM (HEp-2) [%]	MIC (Escherichia coli) [µg/mL]	MIC (Pseudomonas aeruginosa) [µg/mL]	growth inhibition (GI) (IMR-32)	MIC (Staphylococcus aureus) [µg/mL]	MIC (Bacillus subtilis) [µg/mL]	inhibition of growth at 10 µM (OVCAR) [%]	MIC (Aspergillus niger) [µg/mL]	inhibition of growth at 10 µM (PC-3) [%]	inhibition of growth at 10 µM (IMR-32) [%]	growth inhibition (GI) (OVCAR)	growth inhibition (GI) (HEp-2)
O=C(/C=C/c1ccc(Cl)cc1Cl)c1ccc[nH]1	inactive	15.6 (≈ 58.6 µM)	125 (≈ 470 µM)	16	15.6 (≈ 58.6 µM)	31.2 (≈ 117 µM)	inactive	7.8 (≈ 29.3 µM)	15.6 (≈ 58.6 µM)	13	62.5 (≈ 235 µM)				
COc1ccc(OC)c(/C=C/C(=O)c2ccco2)c1		62.5 (≈ 242 µM)	125 (≈ 484 µM)	29	31.2 (≈ 121 µM)	31.2 (≈ 121 µM)		62.5 (≈ 242 µM)	31.2 (≈ 121 µM)		125 (≈ 484 µM)	23	31	inactive	
COc1cc(/C=C/C(=O)c2ccc3ccccc3c2)cc(OC)c1OC		15.6 (≈ 44.8 µM)	125 (≈ 359 µM)	79	3.9 (≈ 11.2 µM)	15.6 (≈ 44.8 µM)		1.9 (≈ 5.45 µM)	3.9 (≈ 11.2 µM)	87	125 (≈ 359 µM)	84	81		
O=C(/C=C/c1cccc(Cl)c1Cl)c1ccc[nH]1		15.6 (≈ 58.6 µM)	250 (≈ 939 µM)	15	15.6 (≈ 58.6 µM)	7.8 (≈ 29.3 µM)	inactive	7.8 (≈ 29.3 µM)	31.2 (≈ 117 µM)		125 (≈ 470 µM)	11		inactive	
COc1ccc(/C=C/C(=O)c2ccco2)cc1O		62.5 (≈ 256 µM)	250 (≈ 1020 µM)	19	62.5 (≈ 256 µM)	125 (≈ 512 µM)		31.2 (≈ 128 µM)	62.5 (≈ 256 µM)	23	250 (≈ 1020 µM)	21	16		
O=C(/C=C/c1ccc2c(c1)OCO2)c1ccc2ccccc2c1		125 (≈ 413 µM)		42	125 (≈ 413 µM)	250 (≈ 827 µM)		62.5 (≈ 207 µM)	125 (≈ 413 µM)	46		42	39		
COc1cc(/C=C/C(=O)c2ccco2)cc(OC)c1OC		31.2 (≈ 108 µM)	62.5 (≈ 217 µM)	47	62.5 (≈ 217 µM)	15.6 (≈ 54.1 µM)		15.6 (≈ 54.1 µM)	31.2 (≈ 108 µM)	28	62.5 (≈ 217 µM)	42	49		
CC1(C)S[C@@H]2[C@H](NC(=O)[C@H](N)c3ccc(O)cc3)C(=O)N2[C@H]1C(=O)O [AMOXICILLIN]		0.2 (≈ 0.547 µM)			0.25 (≈ 0.684 µM)	0.3 (≈ 0.821 µM)		0.2 (≈ 0.547 µM)	0.2 (≈ 0.547 µM)						
O=C(/C=C/c1c(Cl)cccc1Cl)c1ccc[nH]1	inactive	31.2 (≈ 117 µM)	125 (≈ 470 µM)	16	15.6 (≈ 58.6 µM)	31.2 (≈ 117 µM)		15.6 (≈ 58.6 µM)	31.2 (≈ 117 µM)		125 (≈ 470 µM)		12	inactive	
COc1ccc(/C=C/C(=O)c2ccco2)cc1OC		15.6 (≈ 60.4 µM)	250 (≈ 968 µM)	27	15.6 (≈ 60.4 µM)	31.2 (≈ 121 µM)		31.2 (≈ 121 µM)	31.2 (≈ 121 µM)		125 (≈ 484 µM)	29	33	inactive	
OC(Cn1cncn1)(Cn1cncn1)c1ccc(F)cc1F [FLUCONAZOLE]			0.3 (≈ 0.98 µM)								0.2 (≈ 0.653 µM)				
O=C(/C=C/c1cccc(Br)c1)c1ccc2ccccc2c1	inactive	125 (≈ 371 µM)			250 (≈ 741 µM)	250 (≈ 741 µM)		125 (≈ 371 µM)	125 (≈ 371 µM)	14			11		inactive
O=C(/C=C/c1cccc([N+](=O)[O-])c1)c1ccc[nH]1		500 (≈ 2060 µM)		17	250 (≈ 1030 µM)			125 (≈ 516 µM)	250 (≈ 1030 µM)		500 (≈ 2060 µM)	13	14	inactive	
COc1ccc(/C=C/C(=O)c2ccc3ccccc3c2)cc1O		125 (≈ 411 µM)		57	62.5 (≈ 205 µM)	250 (≈ 821 µM)		15.6 (≈ 51.3 µM)	31.2 (≈ 103 µM)	52		47	61		
O=C(/C=C/c1c(Cl)cccc1Cl)c1ccco1	inactive	125 (≈ 468 µM)	250 (≈ 936 µM)	11	62.5 (≈ 234 µM)	250 (≈ 936 µM)	inactive	62.5 (≈ 234 µM)	125 (≈ 468 µM)		250 (≈ 936 µM)			inactive	
COc1ccc(/C=C/C(=O)c2ccc3ccccc3c2)c(OC)c1OC		15.6 (≈ 44.8 µM)	125 (≈ 359 µM)	72	15.6 (≈ 44.8 µM)	7.8 (≈ 22.4 µM)		3.9 (≈ 11.2 µM)	3.9 (≈ 11.2 µM)	88	62.5 (≈ 179 µM)	81	75		
O=C(/C=C/c1ccc2c(c1)OCO2)c1ccco1		125 (≈ 516 µM)		13	125 (≈ 516 µM)	125 (≈ 516 µM)		62.5 (≈ 258 µM)	31.2 (≈ 129 µM)	11	500 (≈ 2060 µM)	21	16		
O=C(/C=C/c1cccc(Cl)c1Cl)c1ccc2ccccc2c1	inactive	62.5 (≈ 191 µM)	250 (≈ 764 µM)	9	31.2 (≈ 95.4 µM)	62.5 (≈ 191 µM)	inactive	31.2 (≈ 95.4 µM)	31.2 (≈ 95.4 µM)	11	250 (≈ 764 µM)				
COc1ccc(/C=C/C(=O)c2ccc3ccccc3c2)cc1OC		62.5 (≈ 196 µM)	500 (≈ 1570 µM)	53	125 (≈ 393 µM)	125 (≈ 393 µM)		62.5 (≈ 196 µM)	62.5 (≈ 196 µM)	49	250 (≈ 785 µM)	53	51		
